The IC50 is the concentration that gives 50% inhibition.

The assay addresses human P2X3 receptor (Homo sapiens (Human), UniProt P56373). The assay can be described thus: P2X3 receptor inhibition, ATP-evoked Fluo-3 calcium fluorescence (FDSS 3000). The class given is cell-based. As to conditions: C6BU-1 cell transfected with human P2X3 receptor gene; ATP-evoked Fluo-3 fluorescence. In a few lines:
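C6BU-1 cells stably transfected with human P2X3, loaded with 4 μM Fluo-3-AM for 1 h at 37 °C in HEPES buffer pH 7.5 with probenecid. Compound added 5 min before 40 nM ATP solution; fluorescence followed 3 min. IC50 from ratio of peak post-ATP to baseline fluorescence.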

human P2X3 receptor, sequence (P56373 whole entry): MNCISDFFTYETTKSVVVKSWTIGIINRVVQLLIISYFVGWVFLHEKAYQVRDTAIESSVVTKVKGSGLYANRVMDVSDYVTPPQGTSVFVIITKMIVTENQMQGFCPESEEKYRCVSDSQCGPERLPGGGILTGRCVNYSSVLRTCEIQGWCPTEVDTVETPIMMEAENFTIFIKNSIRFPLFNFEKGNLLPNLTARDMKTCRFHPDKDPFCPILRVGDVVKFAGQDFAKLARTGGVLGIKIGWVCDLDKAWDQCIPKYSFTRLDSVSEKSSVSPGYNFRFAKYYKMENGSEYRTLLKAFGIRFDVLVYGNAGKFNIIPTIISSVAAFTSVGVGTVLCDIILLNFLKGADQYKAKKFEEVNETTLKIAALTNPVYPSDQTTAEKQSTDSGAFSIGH

As for `Cc1ccc(-c2ccc(N3C(=O)C(O)=C(C(=O)CC(C)C)C3c3ccccc3OCCO)cc2)o1` (stereo not drawn) [Compound I-384], the IC50 is 19 nM.

`COCCOc1ccccc1C1C(C(=O)C(C)(C)C)=C(O)C(=O)N1c1ccc(-c2nc(C)no2)cc1` (stereo not drawn) [Compound I-128]: the IC50 stood at 155 nM.

Take `COc1ccccc1C1C(C(=O)c2cccnc2)=C(O)C(=O)N1c1ccc(-c2ccsc2)cc1` (stereo not drawn) [Compound I-460]: the IC50 came to 103 nM.

In the case of `CO/N=C(/C)c1ccc(N2C(=O)c3[nH]nc(C(C)(C)C)c3C2c2ccccc2OC)cc1` (stereo not drawn) [II-156], the IC50 stood at 412 nM.

For `CC(=O)Nc1ccccc1C1c2c(C(C)C)n[nH]c2C(=O)N1c1ccc(-c2ccsc2)cc1` (stereo not drawn) [II-085], the half-inhibitory concentration (IC50) was determined as 23 nM.

For `COCc1ncccc1C1c2c(C(C)(C)C)n[nH]c2C(=O)N1c1ccc(-c2ccsc2)cc1` (stereo not drawn) [II-126], the IC50 came out at 221 nM.

With `COCCOc1ncccc1[C@@H]1C(C(=O)C(C)C)=C(O)C(=O)N1c1ccc(-c2ccc(C)s2)cc1` [Compound I-472], the IC50 came to 7 nM.

Consider `CC(C)OCc1ccccc1C1C(C(=O)C(C)C)=C(O)C(=O)N1c1ccc(-c2ccsc2)cc1` (stereo not drawn) [Compound I-541], for which the IC50 worked out at 10 nM.

For the compound `COCCOc1ccccc1C1C(C(=O)CC(C)C)=C(O)C(=O)N1c1ccc(C2=NCCS2)cc1` (stereo not drawn) [Compound I-410], the IC50 is 151 nM.

As for `COc1ccc(F)cc1C1C(C(=O)C(C)C)=C(O)C(=O)N1c1ccc(-c2ccsc2)cc1` (stereo not drawn) [Compound I-452], the IC50 was 26 nM.

Take `Cc1ccc(-c2ccc(N3C(=O)C(O)=C(C(=O)C(C)C)C3c3ccccc3C(=O)N(C)CCO)cc2)o1` (stereo not drawn) [Compound I-585]: the IC50 stood at 157 nM.

Regarding `CC(C)c1n[nH]c2c1C(c1ccccc1OCCN(C)C)N(c1ccc(-c3ccsc3)cc1)C2=O` (stereo not drawn) [II-078], the IC50 was determined as 16 nM.

For the compound `CNC(=O)COc1ccccc1C1c2c(C(C)C)n[nH]c2C(=O)N1c1ccc(-c2ccsc2)cc1` (stereo not drawn) [II-049], the IC50 was 11 nM.

As to `COc1ncccc1C1C(C(=O)C(C)(C)C)=C(O)C(=O)N1c1ccc(-c2cccs2)nc1` (stereo not drawn) [Compound I-122], the half-inhibitory concentration (IC50) was determined as 342 nM.

On to `CNC(=O)c1ncccc1C1C(C(=O)CC(C)C)=C(O)C(=O)N1c1ccc(-c2ccc(C)s2)cc1` (stereo not drawn) [Compound I-573], for which the half-maximal inhibitory concentration (IC50) stood at 123 nM.

In the case of `COc1ncccc1C1C(C(=O)C(C)(C)C)=C(O)C(=O)N1c1ccc(-c2ccoc2)cc1` (stereo not drawn) [Compound I-118], the IC50 amounted to 282 nM.

As for `Cc1cc(-c2ccc(N3C(=O)C(O)=C(C(=O)CC(C)C)C3c3ccccc3OCCO)cc2)cs1` (stereo not drawn) [Compound I-374], the IC50 worked out at 40 nM.

For `COc1ncccc1C1c2c(C(C)(C)CO)n[nH]c2C(=O)N1c1ccc(-c2cccs2)cc1` (stereo not drawn) [II-110], the IC50 is 24 nM.

Regarding `CC(C)(C)c1n[nH]c2c1C(c1ccccc1OCc1nnn[nH]1)N(c1ccc(-c3ccsc3)cc1)C2=O` (stereo not drawn) [II-174], the IC50 was 3 nM.

For the compound `COCCOc1ncccc1C1C(C(=O)C2CCCC2)=C(O)C(=O)N1c1ccc(-c2ccon2)cc1` (stereo not drawn) [Compound I-521], the IC50 stood at 554 nM.

Take `Cc1cc(-c2ccc(N3C(=O)C(O)=C(C(=O)CC(C)C)C3c3ccccc3OC(C)C)cc2)on1` (stereo not drawn) [Compound I-370]: the IC50 worked out at 194 nM.

As for `Cc1nc(-c2ccc(N3C(=O)C(O)=C(C(=O)CC4CCCC4)C3C3CCCCC3)cc2)no1` (stereo not drawn) [Compound I-438], the IC50 was determined as 490 nM.

As to `CC(C)c1n[nH]c2c1C(c1ccccc1OCc1nnn[nH]1)N(c1ccc(-c3ccsc3)cc1)C2=O` (stereo not drawn) [II-175], the IC50 came out at 3 nM.

Regarding `CC(C)C(=O)C1=C(O)C(=O)N(c2ccc(-c3ccon3)cc2)C1c1ccccc1OCCO` (stereo not drawn) [Compound I-191], the IC50 worked out at 279 nM.

On to `COC(=O)COCc1ncccc1C1c2c(C(C)(C)C)n[nH]c2C(=O)N1c1ccc(-c2ccsc2)cc1` (stereo not drawn) [II-128], for which the IC50 was found to be 216 nM.

As to `CC(C)c1n[nH]c2c1C(c1ccccc1OCC(=O)NN)N(c1ccc(-c3ccsc3)cc1)C2=O` (stereo not drawn) [II-051], the IC50 came out at 5 nM.

In the case of `COc1ncccc1C1c2c(C(C)(C)C)n[nH]c2C(=O)N1c1ccc(-c2cccs2)cn1` (stereo not drawn) [II-260], the IC50 was 36 nM.

The record behind these values is patent US8575197B2, “Pyrolinone derivative and pharmaceutical composition comprising the same” (Shionogi & Co., Ltd., priority 2008, dated 2013).
